This is an account of results in US6127406A, “Discodermolide compounds and methods of use” (Harbor Branch Oceanographic Institution, Inc., priority 1999, dated 2000).

Each structure is given as a SMILES string.

The subject of test [1] is purified bovine brain tubulin. Briefly: Tubulin polymerization (optical density at 350 nm). The format is biochemical. Conditions: for Polymerization?: 10 uM, 37 C.; for microtubule polymerizing activity compared to discodermolide: compared to the non-acetylated discodermolide. On the procedure: Polymerization of purified bovine brain tubulin (Cytoskeleton Inc., Denver, Colo.) was followed by changes in the optical density of tubulin solutions at 350 nm in a Hitachi U-3010 spectrophotometer equipped with a SPR-10 electronic thermostatted cell holder. Stock solutions of tubulin were diluted on ice in G-PEM buffer (1 mM GTP, 80 mM PIPES, 1 mM EGTA, 0.5 mM magnesium chloride; pH 6.8) to a final concentration of 1 mg/ml. The instrument was zeroed on this solution at 2° C. Discodermolide, its analogs, or paclitaxel were then added to the tubulin solution to a final concentration of 10 μM, quickly mixed, and the absorbance monitored at 37° C.

Test [2] relates to microtubule network of cells. Briefly: Microtubule bundling patterns in cells by immunofluorescence. It is filed as cell-based. The settings on record: for Microtubule bundling: concentration not given. How it is done:
Discodermolide, discodermolide analogs and paclitaxel were evaluated as to their effects on the microtubule network of cells using FITC-labeled, anti-alpha-tubulin monoclonal antibodies.
On day 1, 2.5×10^5 adherent tumor cells were cultured in RPMI 1640 tissue culture medium supplemented with 10% fetal calf serum (TCM) overnight at 37° C. in 5% CO2 on 22 mm^2 coverslips in 6-well microtiter plates. […] On day 3, TCM was removed and cells attached to coverslips were fixed with a 3.7% formaldehyde solution in Dulbecco's PBS for 10 minutes at room temperature. Cells were permeabilized with a 2% Triton X-100 solution, 2 ml per well, for 5 minutes at room temperature and washed twice in Dulbecco's PBS prior to staining.
To each well containing cells attached to coverslips a 2 ml volume of mouse monoclonal anti-alpha-tubulin (Cat # T-5168, Sigma Immuno Chemicals) diluted 1:2400 was added and the cells incubated at 37° C. in 5% CO2 for 45 minutes. Coverslips were rinsed twice with Dulbecco's PBS. A 2 ml volume of goat-anti-mouse-IgG-FITC conjugate (Cat # T-5262, Sigma Immuno Chemicals) diluted at 1:2400 was added and the cells incubated at 37° C. in 5% CO2 for 45 minutes. Coverslips were rinsed once with sterile distilled water and mounted on slides and observed under the microscope using epifluorescence illumination for the presence of abnormal aster and microtubule bundle formation.

The subject of test [3] is P388 murine leukemia cell line. Briefly: Antiproliferative effect on P388 cells (MTT, 48-hr exposure). The format is cell-based. The settings on record: Mus musculus, read-out: P388 IC-50. On the procedure:
(§1) Discodermolide and discodermolide analogs were analyzed as to their effects on proliferation of A549 human adenocarcinoma and P388 murine leukemia cell lines. P388 cells were obtained from Dr. R. Camalier, National Cancer Institute, Bethesda, Md., and A549 cells were obtained from American Type Culture Collection, Rockville, Md. All cell lines were maintained in Roswell Park Memorial Institute (RPMI) medium 1640 supplemented with 10% Rehatuin™ fetal calf serum (Intergen Company, Purchase, N.Y.). All cell lines are cultured in plastic tissue culture flasks and kept in an incubator at 37° C. in humidified air containing 5% CO2. Prior to testing, antibiotic-free stock cultures of each of the cell lines were subcultured to 10^6 cells/ml by dilution in fresh growth medium at 2 to 3 day intervals.
(§2) To assess the antiproliferative effects of agents against the P388 cell line, 200 μl cultures (96-well tissue culture plates, Nunc, Denmark) are established at 1×10^5 cells/ml in drug-free medium or medium containing the test agent at 10.0, 1.0, 0.10 and 0.010 μg/ml. The solvent for all dilutions is ethanol. All experimental cultures are initiated in medium containing Gentamycin sulfate (50 μg/ml; Schering Corporation, Kenilworth, N.J.).
(§3) After 48-hr exposures, P388 cells are enumerated using 3-[4,5-Dimethylthiazol-2-yl]-2,5-diphenyltetrazolium bromide (MTT) (M. C. Alley, et al., Cancer Res. 48:589, 1988). Similar procedures are utilized for A549 cells which require an additional 48 hr exposure prior to MTT addition. Results are expressed as percent inhibition compared to the negative (no drug) control. Positive drug controls are included to monitor drug sensitivity of each of the cell lines. These include varying dilutions of 5-fluorouracil and adriamycin.
(§4) To quantitate the effects on cell proliferation and resulting IC50 values, 75 μl of warm growth media containing 5 mg/ml MTT is added to each well, cultures returned to the incubator, and left undisturbed for 90 minutes. To spectrophotometrically quantitate formation of reduced formazan, plates are centrifuged (900× g, 5 minutes), culture fluids removed by aspiration, and 200 μl of acidified isopropanol (2 ml concentrated HCl/liter isopropanol) added per well. The absorbance of the resulting solutions is measured at 570 nm with a plate reader (TECAN Spectra II PlateReader, TECAN U.S., Research Triangle Park, N.C.) and a 650 nm reference filter. The absorbance of tests wells is divided by the absorbance of drug-free wells, and the concentration of agent that results in 50% of the absorbance of untreated cultures (IC50) is determined by linear regression of logit-transformed data (D. J. Finney, Statistical Method in Biological Assay, third ed., pp.316-348, Charles Griffin Co., London, 1978). A linear relationship between tumor cell number and formazan production has been routinely observed over the range of cell densities observed in these experiments. Two standard drug controls are included in each assay as a check to monitor the drug sensitivity of each of the cell lines and IC50 values are determined for each drug-cell combination.

Test [4] has as its system A549 human adenocarcinoma cell line. Briefly: Antiproliferative effect on A549 cells (MTT). Conditions: additional 48 hr exposure, read-out: A549 IC-50. The format is cell-based. How it is done:
as §1
After 48-hr exposures, P388 cells are enumerated using 3-[4,5-Dimethylthiazol-2-yl]-2,5-diphenyltetrazolium bromide (MTT) (M. C. Alley, et al., Cancer Res. 48:589, 1988). […] Results are expressed as percent inhibition compared to the negative (no drug) control. Positive drug controls are included to monitor drug sensitivity of each of the cell lines. These include varying dilutions of 5-fluorouracil and adriamycin.
as §4

For test [5], the system named is A549 human adenocarcinoma and P388 murine leukemia cell lines. Briefly: Antitumor effects of discodermolide analogs compared to discodermolide. It is filed as cell-based. The settings on record: compared to the non-acetylated discodermolide. On the procedure: as §1, §2, §3
To quantitate the effects on cell proliferation and resulting IC50 values, 75 μl of warm growth media containing 5 mg/ml MTT is added to each well, cultures returned to the incubator, and left undisturbed for 90 minutes. […]

For test [6], the system named is purified bovine brain tubulin. Briefly: Tubulin polymerization (optical density at 350 nm). It is filed as biochemical. The settings on record: 10 uM, 6 C.-37 C.
In test [7] the test system is A549 human lung cells. Briefly: Effect on cell cycle progression (G2/M block, propidium iodide flow cytometry). It is filed as cell-based. The settings on record: 100 nM, 48 hr. (Flow cytometry measures light scatter and fluorescence of single cells or particles in a stream.)
Description: A549 human lung cells were used as cell cycle targets to compare the effects of discodermolide, discodermolide analogs and paclitaxel on perturbation of the cell cycle. Cell cycle analyses were performed as follows: A549 cells were incubated at 37° C. in 10% CO2 in air in the presence or absence of varying concentrations of discodermolide, discodermolide analogs or paclitaxel (purchased from Molecular Probes, Eugene Oreg.) for 48 hr.
Cells were harvested, fixed in ethanol and stained with 0.5 mg/ml of P.I. together with 0.1 mg/ml of RNAse A. This procedure permeabilizes live cells and allows entry of P.I. to stain DNA (propidium iodide also stains double stranded RNA, so RNAse is included in the preparation to exclude this possibility). Stained preparations were analyzed on a Coulter EPICS ELITE with 488 nm excitation with the dead cells excluded by back gating of P.I. preparations without detergent on forward and side scatter histograms. Fluorescence measurements and resulting DNA histograms were collected from at least 5,000 P.I. stained cells at an emission wavelength of 690 nm. Raw histogram data was further analyzed using a cell cycle analysis program (Multicycle, Phoenix Flow Systems).

For `C=CC=CC(C)C(OC(N)=O)C(C)C(OC(C)=O)C(C)CC(C)=CC(C)C(OC(C)=O)C(C)C=CC(CC1OC(=O)C(C)C(OC(C)=O)C1C)OC(C)=O` (stereo not drawn) [Analog 1, Discodermolide-3,7,11,17-tetraacetate], the “Polymerization?” value in test [1] is “No and inactive”. Besides, the “Microtubule Bundling?” value in test [2] (100 nM) is reported as “No”. Besides, the Microtubule bundling result in test [2] is “negative”. Moreover, the IC50 in test [3] was 837 nM; in test [4] it was 1310 nM.

On to `C=CC=CC(C)C(OC(N)=O)C(C)C(OC(C)=O)C(C)CC(C)=CC(C)C(O)C(C)C=CC(CC1OC(=O)C(C)C(OC(C)=O)C1C)OC(C)=O` (stereo not drawn) [Analog 2, Discodermolide-3,7,17-triacetate], for which the “Polymerization?” value in test [1] was “No and inactive”. Further, the “Microtubule Bundling?” value in test [2] (100 nM) and in test [2] (1000 nM) was “No” throughout. For the same compound, the Microtubule bundling entry in test [2] is recorded as “negative”. For the same compound, the IC50 in test [3] was more than 6820 nM; in test [4], more than 1310 nM.

Consider `C=CC=CC(C)C(OC(N)=O)C(C)C(O)C(C)CC(C)=CC(C)C(OC(C)=O)C(C)C=CC(CC1OC(=O)C(C)C(OC(C)=O)C1C)OC(C)=O` (stereo not drawn) [Analog 3, Discodermolide-3,7,11-triacetate], for which the “Polymerization?” value in test [1] was “No and inactive”. Further, the “Microtubule Bundling?” value in test [2] (100 nM) is “No”. Further, the Microtubule bundling result in test [2] is “negative”. The IC50 in test [3] stood at 166 nM; in test [4], 554 nM.

Take `C=CC=CC(C)C(OC(N)=O)C(C)C(O)C(C)CC(C)=CC(C)C(O)C(C)C=CC(CC1OC(=O)C(C)C(OC(C)=O)C1C)OC(C)=O` (stereo not drawn) [Analog 4, Discodermolide-3,7-diacetate]: the “Polymerization?” value in test [1] is “Yes and able to induce tubulin polymerization”. In addition, in test [1], the “microtubule polymerizing activity compared to discodermolide” value is reported as “improved”. Also, the “Microtubule Bundling?” value in test [2] (10 nM) is “Yes”; in test [2] (100 nM), “Yes and induced similar microtubule bundle formation”. In addition, the IC50 in test [3] turned out to be 0.7 nM; in test [4], 3.7 nM. Further, the “antitumor activity compared to discodermolide” value in test [5] is recorded as “improved”.

Regarding `C=CC=CC(C)C(OC(N)=O)C(C)C(O)C(C)CC(C)=CC(C)C(OC(C)=O)C(C)C=CC(O)CC1OC(=O)C(C)C(OC(C)=O)C1C` (stereo not drawn) [Analog 5, Discodermolide-3,11-diacetate], the “Polymerization?” value in test [1] is “No and inactive”. Further, the “Microtubule Bundling?” value in test [2] (100 nM) is reported as “No”. Further, the Microtubule bundling entry in test [2] is on record as “negative”. Also, the IC50 in test [3] came to 103 nM; in test [4] it was 295 nM.

Turning to `C=CC=CC(C)C(OC(N)=O)C(C)C(OC(C)=O)C(C)CC(C)=CC(C)C(O)C(C)C=CC(O)CC1OC(=O)C(C)C(OC(C)=O)C1C` (stereo not drawn) [Analog 6, Discodermolide-3,17-diacetate], the “Polymerization?” value in test [1] was “No and inactive”. Also, the “Microtubule Bundling?” value in test [2] (100 nM) was “No”; in test [2] (1000 nM), “Yes and induced microtubule bundles only at 1000 nM”. The IC50 in test [3] was found to be 1150 nM; in test [4], 736 nM.

For the compound `C=CC=CC(C)C(OC(N)=O)C(C)C(O)C(C)CC(C)=CC(C)C(O)C(C)C=CC(O)CC1OC(=O)C(C)C(OC(C)=O)C1C` (stereo not drawn) [Analog 7, Discodermolide-3-acetate], the “Polymerization?” value in test [1] was “Yes and able to induce tubulin polymerization”. For the same compound, the “microtubule polymerizing activity compared to discodermolide” value in test [1] was “improved”. The “Microtubule Bundling?” value in test [2] (10 nM) is “Yes”; in test [2] (100 nM), “Yes and induced similar microtubule bundle formation”. Also, the IC50 came out at 9 nM in test [3] and 9.4 nM in test [4]. Further, the “antitumor activity compared to discodermolide” value in test [5] is “improved”.

For `C=CC=CC(C)C(OC(N)=O)C(C)C(O)C(C)CC(C)=CC(C)C(O)C(C)C=CC(CC1OC(=O)C(C)C(O)C1C)OC(C)=O` (stereo not drawn) [Analog 8, Discodermolide-7-acetate], the figures for the “Polymerization?” value in test [6] and in test [1] were “Yes” and “able to induce tubulin polymerization”, respectively. In test [1], the “microtubule polymerizing activity compared to discodermolide” value is on record as “improved”. The “Microtubule Bundling?” value in test [2] (100 nM) was “Yes and induced similar microtubule bundle formation”; in test [2] (1000 nM), “Yes”. In addition, the IC50 was determined as 4 nM in test [3] and 0.8 nM in test [4]. Besides, the “antitumor activity compared to discodermolide” value in test [5] is on record as “improved”.

In the case of `C=C/C=C\[C@H](C)[C@H](OC(N)=O)[C@@H](C)[C@H](O)[C@@H](C)C/C(C)=C\[C@H](C)[C@@H](O)[C@@H](C)/C=C\[C@@H](O)C[C@@H]1OC(=O)[C@H](C)[C@@H](O)[C@H]1C` [Discodermolide 9, (+)discodermolide, reference compound], the “Polymerization?” value in test [1] is given as “Yes”; in test [1] (listed as discodermolide 9), “induced the polymerization of purified tubulin”. Also, the “G2/M Block” value in test [7] is listed as “induced cell cycle, G2 /M block”. Moreover, the “Microtubule Bundling?” value in test [2] (10 nM) is listed as “Yes”; in test [2] (100 nM) it was “Yes”; in test [2] (100 nM, listed as Discodermolide9), “induced the formation of microtubule bundles”. Also, the Microtubule bundling result in test [2] is reported as “routinely exhibit abnormal formation of multiple centriolar-radiating microtubules with extensive clusters of associated microtubular "bundles"”. Besides, the IC50 came out at 35 nM in test [3] and 34 nM in test [4].

As for `CC(=O)O[C@H]1C(=O)[C@@]2(C)[C@H]([C@H](OC(=O)c3ccccc3)[C@]3(O)C[C@H](OC(=O)[C@H](O)[C@@H](NC(=O)c4ccccc4)c4ccccc4)C(C)=C1C3(C)C)[C@]1(OC(C)=O)CO[C@@H]1C[C@@H]2O` [Paclitaxel, reference compound], the “Polymerization?” value is given as “Yes” in test [1] and “induced the polymerization of purified tubulin” in test [1] (listed as paclitaxel). Moreover, the “Microtubule Bundling?” value in test [2] (100 nM) is “Yes”; in test [2] (100 nM, listed as paclitaxel), “induced the formation of microtubule bundles”. For the same compound, in test [2], the Microtubule bundling result is given as “routinely exhibit abnormal formation of multiple centriolar-radiating microtubules with extensive clusters of associated microtubular "bundles"”. In test [4], the IC50 amounted to 7.7 nM.
